# Experimental data from patent publication US20250281507A1, “METHODS OF TREATING NEPHROTIC SYNDROME” (The Research Institute at Nationwide Children's Hospital, priority 2021, published 2025).
# Several values for one entry are separate records, joined by “and”; a condition that tells them apart may be missing. Equal entries are not always repeated.
# Assays:
# [1] = system: children with NS; test: Serum albumin before and after addition of pioglitazone; assay type: in vivo, human; conditions: for % S Alb increase (0-1 mo) / % S Alb increase (5-7 mo): vs 0-1 mo pre-PIO; for serum albumin increase, range / mean serum albumin: Responders; for mean serum albumin: pre 2.5 g/dL
# From the text: In the following clinical studies, the efficacy and safety of adding pioglitazone to reduce proteinuria in children with NS was examined. All children with NS identified worldwide to have been treated with pioglitazone were included, with no patients excluded. Each patient had pioglitazone added to their other NS medications at the discretion of their treating pediatric nephrologist. All patient records were reviewed in a de-identified manner, with prior ethics committee approval at each institution. Data were analyzed based on defined time periods before and after the addition of pioglitazone. Patients were defined as having responded to pioglitazone (i.e., Responders) if their urine protein to creatinine ratio (UPCR, mg/mg) decreased from the period 0-1 month pre-pioglitazone to the period 0-1 month post-pioglitazone. Glomerular filtration rate estimation (eGFR) in patients <18 years was calculated using the revised Schwartz equation. In patients >18 years, eGFR was calculated as the mean of the revised Schwartz and CKD-EPI creatinine equations. Quantitative data, such as patient age, duration of NS, pioglitazone dosage, and outcomes of UPCR, TIS, and serum albumin, were summarized as means (standard errors of mean), while categorical data such as renal survival status were summarized as frequency (percent). Due to a small sample size, Responders and Non-responders were compared using Wilcoxon Rank Sum tests on quantitative variables and Fisher's exact tests on categorical variables. For both Responders and Non-responders, pre-pioglitazone to post-pioglitazone initiation changes in UPCR, TIS, and serum albumin levels were analyzed using Wilcoxon Signed Rank tests. Numbers of hospitalizations pre-pioglitazone and post-pioglitazone initiation were analyzed and compared using Poisson distributions. Statistical significance was assessed at both the 0.05 and 0.10 levels. All analyses were conducted using SPSS software ver. 26 (IBM, Armonk, NY, USA).
# [2] = system: children with NS; test: Total Immunosuppression Score (TIS) before and after addition of pioglitazone; assay type: in vivo, human; set-up: % TIS reduction (0-1 mo) / % TIS reduction (5-7 mo) / % TIS reduction (0-1 mo), Mean (SEM) / % TIS reduction (5-7 mo), Mean (SEM): concentration or dose not given beside the values
# Experimental: The reduction in overall immunosuppression can be quantified by comparing the “Total Immunosuppression Score” (TIS) prior to and after the addition of a TZD to the drug regimen (see FIG. 3 herein). The TIS is based on a combination of the number of immunosuppressive drugs being administered and the dose at which each drug is administered. The score for each drug is on a scale of 0 to 4, where: 0=no drug administered; 1=drug administered up to less than 25% of the standardized full dose; 2=drug administered between 25% and less than 50% of the standardized full dose; 3=drug administered between 50% and less than 75% of the standardized full dose; 4=drug administered between 75% and 100% of the standardized full dose. As an example, if five different immunosuppressive medicaments are co-administered to a subject each at their standardized full dose, the TIS=20.
# For each patient, a Total Immunosuppression Score (TIS) (see Table 3) was calculated to quantitate overall immunosuppression. For each class of immunosuppressive drug administered during a given time period, a score of 0-4 was assigned based on the percentage of a full dose for each patient's body size (0=0%; 1=<25%; 2=≥25-<50%; 3=≥50-<75%: 4=≥75%).
# Quantitative data, such as patient age, duration of NS, pioglitazone dosage, and outcomes of UPCR, TIS, and serum albumin, were summarized as means (standard errors of mean), while categorical data such as renal survival status were summarized as frequency (percent). Due to a small sample size, Responders and Non-responders were compared using Wilcoxon Rank Sum tests on quantitative variables and Fisher's exact tests on categorical variables. For both Responders and Non-responders, pre-pioglitazone to post-pioglitazone initiation changes in UPCR, TIS, and serum albumin levels were analyzed using Wilcoxon Signed Rank tests. Numbers of hospitalizations pre-pioglitazone and post-pioglitazone initiation were analyzed and compared using Poisson distributions. Statistical significance was assessed at both the 0.05 and 0.10 levels. All analyses were conducted using SPSS software ver. 26 (IBM, Armonk, NY, USA).
# [3] = Patient 1 (Responder), pre-PIO 2.5
# [4] = Patient 2 (Responder), pre-PIO 2.4
# [5] = Patient 3 (Responder), pre-PIO 1.7
# [6] = Patient 5 (Non-responder), pre-PIO 4.4
# [7] = Patient 6 (Responder), pre-PIO 4.5
# [8] = Patient 7 (Non-responder), pre-PIO 2.9
# [9] = Patient 8 (Responder), pre-PIO 1.2
# [10] = mean of 5 Responders, pre-PIO 2.46
# [11] = mean of Non-responders (Patient 4 ESRD)
# [12] = Patient 1 (Responder), pre-PIO 13
# [13] = Patient 1 (Responder), vs 0-1 mo pre-PIO
# [14] = Patient 2 (Responder), pre-PIO 12
# [15] = Patient 2 (Responder), vs 0-1 mo pre-PIO
# [16] = Patient 3 (Responder), pre-PIO 0
# [17] = Patient 3 (Responder), vs 0-1 mo pre-PIO (TIS 0)
# [18] = Patient 5 (Non-responder), pre-PIO 4
# [19] = Patient 5 (Non-responder), vs 0-1 mo pre-PIO
# [20] = Patient 6 (Responder), pre-PIO 2
# [21] = Patient 7 (Non-responder), pre-PIO 3
# [22] = Patient 7 (Non-responder), vs 0-1 mo pre-PIO
# [23] = Patient 8 (Responder), pre-PIO 4
# [24] = Patient 8 (Responder), vs 0-1 mo pre-PIO
# [25] = mean of 5 Responders, pre-PIO 6.20
compound,measurement,setting,value
CCc1ccc(CCOc2ccc(CC3SC(=O)NC3=O)cc2)nc1 (stereo not shown) [pioglitazone],Post-PIO S Alb (0-1 mo; g/dL),[1]; [3],2.9 g/dL
same,Post-PIO S Alb (5-7 mo; g/dL),[1]; [3],3.5 g/dL
same,% S Alb increase (0-1 mo),[1]; Patient 1 (Responder),16.0%
same,% S Alb increase (5-7 mo),[1]; Patient 1 (Responder),40.0%
same,Post-PIO S Alb (0-1 mo; g/dL),[1]; [4],3 g/dL
same,Post-PIO S Alb (5-7 mo; g/dL),[1]; [4],3.5 g/dL
same,% S Alb increase (0-1 mo),[1]; Patient 2 (Responder),25.0%
same,% S Alb increase (5-7 mo),[1]; Patient 2 (Responder),45.8%
same,Post-PIO S Alb (0-1 mo; g/dL),[1]; [5],2.3 g/dL
same,Post-PIO S Alb (5-7 mo; g/dL),[1]; [5],3.7 g/dL
same,% S Alb increase (0-1 mo),[1]; Patient 3 (Responder),35.3%
same,% S Alb increase (5-7 mo),[1]; Patient 3 (Responder),118%
same,Post-PIO S Alb (0-1 mo; g/dL),"[1]; Patient 4 (Non-responder), pre-PIO 1.6, increase attributed to declining kidney function",2.7 g/dL
same,% S Alb increase (0-1 mo),[1]; Patient 4 (Non-responder),68.8%
same,Post-PIO S Alb (0-1 mo; g/dL),[1]; [6],4.1 g/dL
same,Post-PIO S Alb (5-7 mo; g/dL),[1]; [6],4.3 g/dL
same,% S Alb increase (0-1 mo),[1]; Patient 5 (Non-responder),−6.82%
same,% S Alb increase (5-7 mo),[1]; Patient 5 (Non-responder),−2.27%
same,Post-PIO S Alb (0-1 mo; g/dL),[1]; [7],4.1 g/dL
same,Post-PIO S Alb (5-7 mo; g/dL),[1]; [7],4.4 g/dL
same,% S Alb increase (0-1 mo),[1]; Patient 6 (Responder),−8.89%
same,% S Alb increase (5-7 mo),[1]; Patient 6 (Responder),−2.22%
same,Post-PIO S Alb (0-1 mo; g/dL),[1]; [8],2.8 g/dL
same,Post-PIO S Alb (5-7 mo; g/dL),[1]; [8],3.1 g/dL
same,% S Alb increase (0-1 mo),[1]; Patient 7 (Non-responder),−3.45%
same,% S Alb increase (5-7 mo),[1]; Patient 7 (Non-responder),6.90%
same,Post-PIO S Alb (0-1 mo; g/dL),[1]; [9],3.1 g/dL
same,Post-PIO S Alb (5-7 mo; g/dL),[1]; [9],3.4 g/dL
same,% S Alb increase (0-1 mo),[1]; Patient 8 (Responder),158%
same,% S Alb increase (5-7 mo),[1]; Patient 8 (Responder),183%
same,"serum albumin increase, range",[1]; 0-1 month post-pioglitazone,−9-158%
same,mean serum albumin,[1]; 0-1 month post-pioglitazone,3.1 g/dL
same,"serum albumin increase, range",[1]; 5-7 months post-pioglitazone,−2-183%
same,mean serum albumin,[1]; 5-7 months post-pioglitazone,3.7 g/dL
same,"% S Alb increase (0-1 mo), Mean (SEM)",[1]; mean of 5 Responders,45% and 45.2%
same,"% S Alb increase (5-7 mo), Mean (SEM)",[1]; mean of 5 Responders,77% and 76.9%
same,"Post-PIO S Alb (0-1 mo; g/dL), Mean (SEM)",[1]; [10],3.08 g/dL
same,"Post-PIO S Alb (5-7 mo; g/dL), Mean (SEM)",[1]; [10],3.7 g/dL
same,"% S Alb increase (0-1 mo), Mean (SEM)",[1]; mean of Non-responders,19.5%
same,"Post-PIO S Alb (5-7 mo; g/dL), Mean (SEM)",[1]; [11],3.7 g/dL
same,"% S Alb increase (5-7 mo), Mean (SEM)",[1]; mean of Non-responders (without Patient 4),2.31%
same,"Post-PIO S Alb (0-1 mo; g/dL), Mean (SEM)","[1]; mean of Non-responders, pre-PIO 2.97",3.2 g/dL
same,mean TIS,"[2]; Non-responders, before and after pioglitazone treatment",approximately 3.5
same,Post-PIO TIS (0-1 mo),[2]; [12],11
same,Post-PIO TIS (5-7 mo),[2]; [12],5
same,% TIS reduction (0-1 mo),[2]; [13],15% and 15.4%
same,% TIS reduction (5-7 mo),[2]; [13],62% and 61.5%
same,Post-PIO TIS (0-1 mo),[2]; [14],12
same,Post-PIO TIS (5-7 mo),[2]; [14],8
same,% TIS reduction (0-1 mo),[2]; [15],0%
same,% TIS reduction (5-7 mo),[2]; [15],33% and 33.3%
same,Post-PIO TIS (0-1 mo),[2]; [16],2
same,Post-PIO TIS (5-7 mo),[2]; [16],1
same,% TIS reduction (0-1 mo),[2]; [17],−∞
same,% TIS reduction (5-7 mo),[2]; [17],−∞
same,TIS increase,"[2]; Patient 4 (Non-responder), over the next 1 month",133%
same,Post-PIO TIS (0-1 mo),"[2]; Patient 4 (Non-responder), pre-PIO 3",7
same,% TIS reduction (0-1 mo),"[2]; Patient 4 (Non-responder), vs 0-1 mo pre-PIO",−133%
same,Post-PIO TIS (0-1 mo),[2]; [18],4
same,Post-PIO TIS (5-7 mo),[2]; [18],4
same,% TIS reduction (0-1 mo),[2]; [19],0.00%
same,% TIS reduction (5-7 mo),[2]; [19],0.00%
same,Post-PIO TIS (0-1 mo),[2]; [20],2
same,Post-PIO TIS (5-7 mo),[2]; [20],2
same,% TIS reduction (5-7 mo),"[2]; Patient 6 (Responder), vs 0-1 mo pre-PIO",0.00%
same,Post-PIO TIS (0-1 mo),[2]; [21],3
same,Post-PIO TIS (5-7 mo),[2]; [21],3
same,% TIS reduction (0-1 mo),[2]; [22],0.00%
same,% TIS reduction (5-7 mo),[2]; [22],0.00%
same,Post-PIO TIS (0-1 mo),[2]; [23],3
same,Post-PIO TIS (5-7 mo),[2]; [23],2
same,% TIS reduction (0-1 mo),[2]; [24],25%
same,% TIS reduction (5-7 mo),[2]; [24],50%
same,decrease in overall exposure to immunosuppressive medications (mean TIS),"[2]; Responders, mean TIS 6.2 at 0-1 month pre- to 3.6 at 5-7 months post-pioglitazone",42%
same,"% TIS reduction (0-1 mo), Mean (SEM)",[2]; mean of 5 Responders,−∞
same,"% TIS reduction (5-7 mo), Mean (SEM)",[2]; mean of 5 Responders,−∞
same,"Post-PIO TIS (0-1 mo), Mean (SEM)",[2]; [25],6.00
same,"Post-PIO TIS (5-7 mo), Mean (SEM)",[2]; [25],3.6
same,"% TIS reduction (0-1 mo), Mean (SEM)",[2]; mean of Non-responders,−44.4%
same,"Post-PIO TIS (5-7 mo), Mean (SEM)",[2]; [11],3.50
same,"% TIS reduction (5-7 mo), Mean (SEM)",[2]; mean of Non-responders (Patient 4 NA),0.00%
same,"Post-PIO TIS (0-1 mo), Mean (SEM)","[2]; mean of Non-responders, pre-PIO 3.33",4.67
